Test results from ChEMBL document CHEMBL6087394, “Immune Checkpoint-Modulating Photosensitizer That Targets BRD4 for Cancer Photoimmunotherapy” (J Med Chem, 2024).
Activity calls are given as the source filed them.

Tests used:
[1] = Photophysical property of the compound assessed as maximum fluorescent emission peak at by fluorescence at 10 uM spectrophotometric analysis; type: physicochemical
[2] = Induction of ROS generation in PBS buffer assessed as increase in superoxide anion radical level by measuring increase in DHR123 fluorescence intensity at 5 uM irradiated with 660 nm 20 mW/cm2 light for upto 7 mins by DHR123 probe based fluorescence spectra analysis; type: functional
[3] = Induction of singlet oxygen production in PBS buffer assessed as decrease in absorption signal at 410 nm under light irradiation with 660 nm 20 mW/cm2 by ABDA based microplate reader analysis relative to control; type: functional
[4] = Drug uptake in human MDA-MB-231 cells assessed as increase in fluorescence intensity at 2.5 uM measured after 2 hrs by flow cytometry analysis; type: ADME, cell-based; settings: mda-mb-231, 2 h
MDA-MB-231 [5] = test: Induction of ROS production in human MDA-MB-231 cells assessed as increase in green fluorescent intensity at 0.1 uM preincubated with compound for 2 hrs followed by light irradiation for 10 mins by DCFH-DA probe based flow cytometry; type: functional, cell-based; settings: time 130.0 min
MDA-MB-231 [6] = test: Induction of ROS production in human MDA-MB-231 cells assessed as increase in green fluorescent intensity at 0.1 uM preincubated with compound for 2 hrs followed by light irradiation for 10 mins in presence of NaN3 by DCFH-DA probe based flow cytometry; type: functional, cell-based; settings: time 130.0 min
MDA-MB-231 [7] = test: Induction of ROS production in human MDA-MB-231 cells assessed as increase in green fluorescent intensity at 0.1 uM preincubated with compound for 2 hrs followed by light irradiation for 10 mins in presence of tiron by DCFH-DA probe based flow cytometry; type: functional, cell-based; settings: time 130.0 min
MDA-MB-231 [8] = test: Cytotoxicity against human MDA-MB-231 cells assessed as reduction in cell viability upto 10 uM incubated for 24 hrs by CCK-8 assay; type: functional, cell-based
[9] = Phototoxicity against human MDA-MB-231 cells assessed as reduction in cell viability preincubated with compound for 2 hrs followed by light irradiation with 660 nm 20 mW/cm2 for 10 mins and measured after 24 hrs by CCK-8 assay; type: functional, cell-based; settings: MDA-MB-231, light or radiation study
MDA-MB-231 [10] = test: Induction of cell death in human MDA-MB-231 cells assessed as increase in bright red signal at 0.5 uM preincubated with compound for 2 hrs followed by light irradiation with 660 nm 20 mW/cm2 for 10 mins and measured after 12 hrs by Calcein-AM staining based inverted fluorescence microscopic analysis; type: functional; settings: time 850.0 min
[11] = target: T1, Bromodomain-containing protein 4 (Homo sapiens, UniProt O60885); test: Inhibition of BRD4 (unknown origin) incubated for 120 mins by TR-FRET assay
MDA-MB-231 [12] = test: Induction of pyroptosis in human MDA-MB-231 cells assessed as cell swelling at 0.25 uM preincubated with compound for 2 hrs followed by light irradiation with 660 nm 20 mW/cm2 for 10 mins and measured after 24 hrs by CLSM imaging analysis; type: functional, cell-based; settings: time 1570.0 min
MDA-MB-231 [13] = test: Induction of pyroptosis in human MDA-MB-231 cells assessed as formation of large bubbles on plasma membrane at 0.25 uM preincubated with compound for 2 hrs followed by light irradiation with 660 nm 20 mW/cm2 for 10 mins and measured after 24 hrs by CLSM imaging analysis; type: functional, cell-based; settings: time 1570.0 min
MDA-MB-231 [14] = test: Induction of pyroptosis in human MDA-MB-231 cells assessed as increase in GSDME-N expression at 0.25 uM preincubated with compound for 2 hrs followed by light irradiation with 660 nm 20 mW/cm2 for 10 mins and measured after 24 hrs by Western blot analysis; type: functional, cell-based; settings: time 1570.0 min
MDA-MB-231 [15] = test: Induction of pyroptosis in human MDA-MB-231 cells assessed as increase in cleaved caspase -3 expression at 0.1 uM preincubated with compound for 2 hrs followed by light irradiation with 660 nm 20 mW/cm2 for 10 mins and measured after 24 hrs by Western blot analysis; type: functional, cell-based; settings: time 1570.0 min
MDA-MB-231 [16] = test: Induction of pyroptosis in human MDA-MB-231 cells assessed as effect on cleaved GSDMD expression at 0.1 uM preincubated with compound for 2 hrs followed by light irradiation with 660 nm 20 mW/cm2 for 10 mins and measured after 24 hrs by Western blot analysis; type: functional, cell-based; settings: time 1570.0 min
MDA-MB-231 [17] = test: Induction of pyroptosis in human MDA-MB-231 cells assessed as effect on caspase-1 expression at 0.1 uM preincubated with compound for 2 hrs followed by light irradiation with 660 nm 20 mW/cm2 for 10 mins and measured after 24 hrs by Western blot analysis; type: functional, cell-based; settings: time 1570.0 min
MDA-MB-231 [18] = test: Effect on LDH level in human MDA-MB-231 cells preincubated with compound for 2 hrs followed by light irradiation with 660 nm 20 mW/cm2 for 10 mins and measured after 24 hrs; type: functional, cell-based; settings: time 1570.0 min
MDA-MB-231 [19] = test: Effect on IL-1beta level in human MDA-MB-231 cells preincubated with compound for 2 hrs followed by light irradiation with 660 nm 20 mW/cm2 for 10 mins and measured after 24 hrs by ELISA analysis; type: functional, cell-based; settings: time 1570.0 min
MDA-MB-231 [20] = test: Induction of cell death in human MDA-MB-231 cells assessed as increase in HMGB1 release in nucleus by immunofluorescence staining based analysis; type: functional
MDA-MB-231 [21] = test: Induction of ferroptosis in human MDA-MB-231 cells assessed as decrease in GSH level at 0.1 uM preincubated with compound for 2 hrs followed by light irradiation with 660 nm 20 mW/cm2 for 10 mins and measured after 12 hrs; type: functional, cell-based; settings: time 850.0 min
MDA-MB-231 [22] = test: Induction of ferroptosis in human MDA-MB-231 cells assessed as increase in intracellular LPO accumulation by measuring green fluorescence intensity at 0.1 uM preincubated with compound for 2 hrs followed by light irradiation with 660 nm 20 mW/cm2 for 10 mins and measured after 12 hrs; type: functional, cell-based; settings: time 850.0 min
MDA-MB-231 [23] = test: Induction of ferroptosis in human MDA-MB-231 cells assessed as reduction in GPX4 expression at 0.1 uM preincubated with compound for 2 hrs followed by light irradiation with 660 nm 20 mW/cm2 for 10 mins and measured after 12 hrs by Western blot analysis; type: functional, cell-based; settings: time 850.0 min
MDA-MB-231 [24] = test: Induction of autophagy in human MDA-MB-231 cells assessed as increase in ratio of LC3-II to LC3-I preincubated with compound for 2 hrs followed by light irradiation with 660 nm 20 mW/cm2 for 10 mins and measured after 12 hrs by Western blot analysis; type: functional, cell-based; settings: time 850.0 min
MDA-MB-231 [25] = test: Induction of autophagy in human MDA-MB-231 cells assessed as downregulation p62 expression preincubated with compound for 2 hrs followed by light irradiation with 660 nm 20 mW/cm2 for 10 mins and measured after 24 hrs by Western blot analysis; type: functional, cell-based; settings: time 1570.0 min
MDA-MB-231 [26] = test: Induction of DNA damage in human MDA-MB-231 cells assessed as upregulation of gamma-H2AX expression preincubated with compound for 2 hrs followed by light irradiation with 660 nm 20 mW/cm2 for 10 mins and measured after 24 hrs by Western blot analysis; type: functional, cell-based; settings: time 1570.0 min
MDA-MB-231 [27] = test: […] in human MDA-MB-231 cells assessed as decrease in RAD51 expression preincubated with compound for 2 hrs followed by light irradiation with 660 nm 20 mW/cm2 for 10 mins and measured after 24 hrs by Western blot analysis; type: functional, cell-based; settings: time 1570.0 min
MDA-MB-231 [28] = test: Down regulation of PD-L1 expression in human MDA-MB-231 cells incubated for 24 hrs by Western blot analysis; type: functional, cell-based; settings: dose 0.5-2.5 µM
MDA-MB-231 [29] = test: Down regulation of PD-L1 expression in human MDA-MB-231 cells at 0.1 uM preincubated with compound for 2 hrs followed by light irradiation with 660 nm 20 mW/cm2 for 10 mins and measured after 24 hrs by Western blot analysis; type: functional, cell-based; settings: time 1570.0 min
[30] = target: T1, Bromodomain-containing protein 4; test: Inhibition of BRD4 in human MDA-MB-231 cells assessed as downregulation of c-Myc expression at 0.5 to 2.5 uM incubated for 24 hrs by Western blot analysis; type: cell-based; settings: dose 0.5-2.5 µM
[31] = Biodistribution in female BALB/c mouse tumor at 2.5 mg/kg, iv measured at 1 hr; type: ADME, organism-based, Neoplasm; settings: in vivo
[32] = Biodistribution in female BALB/c mouse tumor at 2.5 mg/kg, iv measured at 3 hrs; type: ADME, organism-based, Neoplasm; settings: in vivo
4T1 [33] = test: Antitumor activity against mouse 4T1 cells implanted in female BALB/c mouse assessed as inhibition of tumor growth at 2.5 mg/kg, iv preincubated with compound for 3 hrs followed by light irradiation with 660 nm 300 mW/cm2 for 3 min and measured after 14 days; type: functional, organism-based; settings: time 20343.0 min
4T1 [34] = test: Antitumor activity against mouse 4T1 cells implanted in female BALB/c mouse assessed as inhibition of tumor growth at 2.5 mg/kg, iv; type: functional, organism-based
[35] = Toxicity in BALB/c mouse implanted with mouse 4T1 cells at 2.5 mg/kg, iv; type: organism-based; settings: in vivo
[36] = Toxicity in BALB/c mouse implanted with mouse 4T1 cells assessed as heart damage at 2.5 mg/kg, iv measured after 14 days by H and E staining based analysis; type: organism-based; settings: in vivo, 336 h, time 14 day
[37] = Toxicity in BALB/c mouse implanted with mouse 4T1 cells assessed as liver damage at 2.5 mg/kg, iv measured after 14 days by H and E staining based analysis; type: organism-based; settings: in vivo, 336 h, time 14 day
[38] = Toxicity in BALB/c mouse implanted with mouse 4T1 cells assessed as spleen damage at 2.5 mg/kg, iv measured after 14 days by H and E staining based analysis; type: organism-based; settings: in vivo, 336 h, time 14 day
[39] = Toxicity in BALB/c mouse implanted with mouse 4T1 cells assessed as kidney damage at 2.5 mg/kg, iv measured after 14 days by H and E staining based analysis; type: organism-based; settings: in vivo, 336 h, time 14 day
4T1 [40] = test: Antitumor activity against mouse 4T1 cells implanted in female BALB/c mouse assessed as increase in CD4+ T cells at 2.5 mg/kg, iv preincubated with compound for 3 hrs followed by light irradiation with 660 nm 300 mW/cm2 for 3 min and measured after 14 days; type: functional, organism-based; settings: time 20343.0 min
4T1 [41] = test: Antitumor activity against mouse 4T1 cells implanted in female BALB/c mouse assessed as increase in CD8+ T cells at 2.5 mg/kg, iv preincubated with compound for 3 hrs followed by light irradiation with 660 nm 300 mW/cm2 for 3 min and measured after 14 days; type: functional, organism-based; settings: time 20343.0 min
4T1 [42] = test: Antitumor activity against mouse 4T1 cells implanted in female BALB/c mouse assessed as increase in T cell infiltration at 2.5 mg/kg, iv preincubated with compound for 3 hrs followed by light irradiation with 660 nm 300 mW/cm2 for 3 min and measured after 14 days; type: functional, organism-based; settings: time 20343.0 min

CCN(CC)c1ccc2nc3c(cc(NCc4ccc(NC(=O)C[C@H]5N=C(c6ccc(Cl)cc6)c6c(sc(C)c6C)-n6c(C)nnc65)cc4)c4ccccc43)[s+]c2c1.[Cl-]
45 nM: IC50 [11]
Active: Activity [1] | Drug uptake [4] | Drug uptake [31] | Drug uptake [32]
inactive: Activity (MDA-MB-231 [6]) | Activity (MDA-MB-231 [16]) | Activity (MDA-MB-231 [17])
Non-toxic: Activity [35] | Activity [36] | Activity [37] | Activity [38] | Activity [39]
active: Activity [2] | Activity [3] | Activity (MDA-MB-231 [5]) | Activity (MDA-MB-231 [7]) | Activity (MDA-MB-231 [8]) | Activity (MDA-MB-231 [10]) | Activity (MDA-MB-231 [12]) | Activity (MDA-MB-231 [13]) | Activity (MDA-MB-231 [14]) | Activity (MDA-MB-231 [15]) | Activity (MDA-MB-231 [18]) | Activity (MDA-MB-231 [19]) | Activity (MDA-MB-231 [20]) | Activity (MDA-MB-231 [21]) | Activity (MDA-MB-231 [22]) | Activity (MDA-MB-231 [23]) | Activity (MDA-MB-231 [24]) | Activity (MDA-MB-231 [25]) | Activity (MDA-MB-231 [26]) | Activity (MDA-MB-231 [27]) | Activity (MDA-MB-231 [28]) Dose-dependent-effect | Activity (MDA-MB-231 [29]) | inhibition [30] | Activity (4T1 [33]) | Activity (4T1 [34]) | Activity (4T1 [40]) | Activity (4T1 [41]) | Activity (4T1 [42])
110 nM: IC50 [9]
